Test results reported in the Biogen ADME set (Fang et al. 2023).
≈ marks a conversion by molar mass, not a printed value.

Conditions: for aqueous solubility: pH 6.8

Row | intrinsic clearance, human liver microsomes | intrinsic clearance, rat liver microsomes | MDR1-MDCK efflux ratio | aqueous solubility | fraction unbound, human plasma | fraction unbound, rat plasma | SMILES
1 | 29 mL/min/kg | 173 mL/min/kg |  |  |  |  | Cc1c(C(=O)NCCc2cc3nc(-c4ccco4)ccn3n2)cnn1C
2 | 479 mL/min/kg | 2170 mL/min/kg | 0.443 | 24.5 µg/mL (≈ 84.6 µM) |  |  | Clc1ccccc1CNCc1ccc2c(c1)OCCO2
3 | 373 mL/min/kg | 1790 mL/min/kg | 1.81 |  |  |  | CC(C)N(C(=O)Cn1cccc2cc(-c3ccco3)nc1-2)C(C)C
4 | 341 mL/min/kg | 2000 mL/min/kg | 0.641 | 14.1 µg/mL (≈ 44 µM) |  |  | CN1CCN(Cc2noc(Cc3ccccc3)n2)c2ccccc21
5 | 89.2 mL/min/kg | 1320 mL/min/kg | 0.734 | 16.8 µg/mL (≈ 59.8 µM) |  |  | c1ccc(Cc2n[nH]c(CSc3ccccc3)n2)cc1
6 |  |  |  | 0.47 µg/mL (≈ 1.07 µM) |  |  | CC(C)NS(=O)(=O)c1ccc2c(c1)oc(=O)c1cc(S(=O)(=O)NC(C)C)ccc12
7 | 90.9 mL/min/kg | 365 mL/min/kg |  |  |  |  | CN1CCC(CNc2ccc3ncc(-c4cccc(OC(F)(F)F)c4)n3n2)CC1
8 |  |  |  | 38.5 µg/mL (≈ 147 µM) |  |  | N#CCN(CN1C(=O)CC2(CCCC2)C1=O)C1CC1
9 | 55.4 mL/min/kg | 1050 mL/min/kg | 0.624 | 30.4 µg/mL (≈ 93.3 µM) |  |  | Clc1ccc(-c2ccc(CNCC3CCCO3)o2)c(Cl)c1 (configuration not stated)
10 | 136 mL/min/kg | 105 mL/min/kg | 14.1 | 3.23 µg/mL (≈ 5.72 µM) |  |  | Cc1c(CN2CCC(Nc3ncnc4sc(CC(F)(F)F)cc34)CC2)ccc2c1cc(C#N)n2Cc1cn[nH]c1
11 | 42 mL/min/kg | 227 mL/min/kg |  | 2.9 µg/mL (≈ 8.11 µM) |  |  | Cc1nnc(NC(=O)c2nn(-c3ccc(F)cc3)c3c2CCCC3)s1
12 | 7.7 mL/min/kg | 228 mL/min/kg | 0.566 | 34.4 µg/mL (≈ 111 µM) |  |  | Brc1cc2c(cc1Cn1cncn1)OCCCO2
13 |  |  |  | 42.5 µg/mL (≈ 115 µM) |  |  | O=C(Nc1cc(C2CC2)n[nH]1)C1CCN(C(=O)COc2ccccc2)CC1
14 | 13.9 mL/min/kg | 146 mL/min/kg | 37.4 | 56.3 µg/mL (≈ 162 µM) |  |  | O=C(c1cccc(CNc2ccc3nccnc3n2)c1)N1CCCCC1
15 | 166 mL/min/kg | 497 mL/min/kg | 5.07 | 1.29 µg/mL (≈ 3.32 µM) |  |  | Cc1noc(C)c1CC(=O)N1CCc2[nH]c3ccc(Br)cc3c2C1
16 |  |  |  | 32.6 µg/mL (≈ 117 µM) |  |  | N#CCC1(n2cc(-c3ncnc4[nH]ccc34)cn2)CNC1
17 | ≤ 4.74 mL/min/kg | ≤ 10.7 mL/min/kg | 1.13 | 1.15 µg/mL (≈ 3.22 µM) |  |  | FC(F)(F)c1nc(Nc2ccc(-n3cnnn3)cc2)c2ccccc2n1
18 |  |  |  | 2.4 µg/mL (≈ 7.29 µM) |  |  | c1ccc2nc(N3CCC(c4nc5ccccc5[nH]4)CC3)cnc2c1
19 | ≤ 4.74 mL/min/kg | ≤ 10.7 mL/min/kg | 1.44 |  |  |  | c1ccc(-c2noc(Cn3ccnc3)n2)nc1
20 | 72.7 mL/min/kg | 503 mL/min/kg | 0.273 | 30.3 µg/mL (≈ 109 µM) |  |  | N#CC1(CN2CCc3cc(-c4ccccc4)oc3C2)CC1
21 | 21.5 mL/min/kg | 284 mL/min/kg | 23.3 |  |  |  | CC(C)Cc1cc(CN2CCN(S(=O)(=O)N3CCOCC3)CC2)n[nH]1
22 |  |  |  | 0.26 µg/mL (≈ 0.742 µM) |  |  | COc1cccc(-c2nnn(-c3ncnc4sc5c(c34)CCC5)n2)c1
23 | 10.8 mL/min/kg | 70.4 mL/min/kg | 0.513 | 33.3 µg/mL (≈ 134 µM) | 0.0213 | 0.0497 | Cc1c(Cl)ccc2cc3n(c12)[C@@H](C)CNC3=O
24 | 97 mL/min/kg | 2050 mL/min/kg | 0.392 | 3.93 µg/mL (≈ 12.9 µM) |  |  | Cc1cc(C(=O)Nc2ccc(C)c(C)c2)n(-c2ccccc2)n1
25 | 117 mL/min/kg | 63.7 mL/min/kg | 0.379 | 34.4 µg/mL (≈ 135 µM) |  |  | COc1cc2c(cc1NC(C)=O)oc1ccccc12
26 | 6.88 mL/min/kg | 764 mL/min/kg |  | 38.1 µg/mL (≈ 147 µM) |  |  | Cc1cccnc1NC(=O)CCc1ccc(F)cc1
27 | 122 mL/min/kg | 1920 mL/min/kg | 0.679 | 32.9 µg/mL (≈ 103 µM) |  |  | Cc1ccc2c(c1)c(Cn1ccnc1-c1cccc(C)n1)nn2C

The next lines start with the compound.

Row | SMILES | intrinsic clearance, human liver microsomes | intrinsic clearance, rat liver microsomes | MDR1-MDCK efflux ratio | aqueous solubility | fraction unbound, human plasma | fraction unbound, rat plasma
28 | CC(C)(O)CNc1ncc(-c2ccnc(Nc3ccnc(Cl)c3)n2)c(CC2CC2)n1 | 23.6 mL/min/kg | 149 mL/min/kg | 10.5 | 21.9 µg/mL (≈ 51.5 µM) |  | 
29 | CCN(c1ccccc1)S(=O)(=O)c1ccc(C(=O)Nc2ccccc2C(C)=O)cc1 |  |  | 1.18 | 0.45 µg/mL (≈ 1.07 µM) |  | 
30 | N#Cc1ccc(OC2CCNCC2)cc1 | ≤ 4.74 mL/min/kg | ≤ 10.7 mL/min/kg |  |  |  | 
31 | COc1ccc(OC)c(-c2cc(C(=O)N3CCCN(C(C)=O)CC3)no2)c1 | 12.9 mL/min/kg | 214 mL/min/kg | 4.72 | 59.7 µg/mL (≈ 160 µM) |  | 
32 | CNCc1cc(N(C)C)nc(C2CCCN2C(=O)C2CCCC2)n1 (configuration not stated) | ≤ 4.74 mL/min/kg | 249 mL/min/kg | 45.6 |  |  | 
33 | CC(=O)Nc1ccc(C(=O)N2CCc3ncncc3C2)cc1 | ≤ 4.74 mL/min/kg | ≤ 10.7 mL/min/kg | 17.2 | 33.7 µg/mL (≈ 114 µM) |  | 
34 | O=C(O)CCn1c2ccccc2c2ccccc21 | ≤ 4.74 mL/min/kg | 11.4 mL/min/kg | 0.809 | 52 µg/mL (≈ 217 µM) |  | 
35 | Cc1nc(NC2(c3cccc(Cl)c3)CC2)c2c(C)noc2n1 | 9.21 mL/min/kg | 254 mL/min/kg | 0.871 | 41.4 µg/mL (≈ 131 µM) |  | 
36 | CC(=O)N1CCN(C(=O)CCc2ccc(-c3ccccc3)[nH]2)CC1 | ≤ 4.74 mL/min/kg | 59.6 mL/min/kg | 8.83 | 61.8 µg/mL (≈ 190 µM) |  | 
37 | CNC(=O)N1CCc2nc3ccc(Cl)cn3c(=O)c2C1 | ≤ 4.74 mL/min/kg | ≤ 10.7 mL/min/kg | 6.16 | 50.5 µg/mL (≈ 173 µM) |  | 
38 | COc1cc(CN[C@@H]2CCC[C@H]2Cc2cc(C)no2)ccc1OC(C)C | 66.8 mL/min/kg | 2380 mL/min/kg |  |  |  | 
39 | Cc1cccn(Cc2cccc(C#N)c2)c1=O | ≤ 4.74 mL/min/kg | 28.8 mL/min/kg | 0.69 | 30.9 µg/mL (≈ 138 µM) |  | 
40 | CCCc1nnc2sc(-c3cc(C(C)C)nn3C)nn12 | 31.3 mL/min/kg | 593 mL/min/kg |  | 17.9 µg/mL (≈ 61.5 µM) |  | 
41 | Cc1ccc(C)c(-n2c(S)nnc2-c2ccc(O)cc2)c1 | 5.5 mL/min/kg | 164 mL/min/kg | 31.1 | 22.1 µg/mL (≈ 74.1 µM) |  | 
42 | Cc1cccc(NC(=O)C(=O)c2c(C)nn(C)c2C)n1 | 19.4 mL/min/kg | 231 mL/min/kg |  |  |  | 
43 | COc1cc(CCNC(=O)c2nc3cccc(C)n3c2F)cc(OC)c1 | 81.6 mL/min/kg | 821 mL/min/kg |  | 39.5 µg/mL (≈ 111 µM) |  | 

Row | SMILES | intrinsic clearance, human liver microsomes | intrinsic clearance, rat liver microsomes | MDR1-MDCK efflux ratio | aqueous solubility | fraction unbound, human plasma | fraction unbound, rat plasma
44 | CCOC(=O)Cc1c(C)[nH]c2c(-c3ccccc3)cnn2c1=O | 6.21 mL/min/kg | 89.6 mL/min/kg | 18 | 14.9 µg/mL (≈ 47.9 µM) |  | 
45 | COc1ccc([C@H]2c3[nH]c4ccc(Cl)cc4c3CCN2C(=O)Oc2ccc(Cl)cc2)cc1 |  |  | 0.432 | 0.1 µg/mL (≈ 0.214 µM) | 0.326 | 0.568
46 | CCCn1ncc2[nH]c(-c3cc(Cn4cncn4)c(C)cc3C)nc21 | 51.7 mL/min/kg | 199 mL/min/kg | 90.9 | 33.6 µg/mL (≈ 100 µM) |  | 
47 | C#CCOc1ccc(OC)cc1C(N)=O | 13.8 mL/min/kg | 73.3 mL/min/kg | 0.717 |  |  | 
48 | CC(C)(C)NC(=O)Cn1nc(C(c2ccccc2)c2ccccc2)oc1=O | 22.4 mL/min/kg | 747 mL/min/kg | 4.07 | 6.02 µg/mL (≈ 16.5 µM) |  | 
49 | O=C(Nc1cc(Cl)ccc1Cl)c1cccc(N2CCCC2=O)c1 | 156 mL/min/kg | 969 mL/min/kg |  | 34.8 µg/mL (≈ 99.7 µM) |  | 
50 | CCc1cc(N(C)Cc2ccc(N)nc2)nc(C)n1 | ≤ 4.74 mL/min/kg | ≤ 10.7 mL/min/kg | 1.99 | 36.5 µg/mL (≈ 142 µM) |  | 
51 | O=C(NCCN1CCc2ccccc2C1=O)c1ccncc1 | 13.6 mL/min/kg | 240 mL/min/kg |  |  |  | 
52 | Cc1[nH]nc(CCC(=O)NCCCOC2CCCC2)c1C | 33.6 mL/min/kg | 2410 mL/min/kg | 14.4 |  |  | 
53 | Cc1cc(C(=O)NCC2CCC3(CC2)OCCO3)[nH]n1 | ≤ 4.74 mL/min/kg | 99.2 mL/min/kg | 4.03 |  |  | 
54 | Cc1ccc(C(=O)N(C)Cc2c(C)noc2C)cn1 | ≤ 4.74 mL/min/kg | ≤ 10.7 mL/min/kg | 1.35 | 40.8 µg/mL (≈ 157 µM) |  | 
55 | CC(=O)N[C@H]1CCN(C(=O)N[C@H](C)C(c2ccccc2)c2ccccc2)C1 | 63.6 mL/min/kg | 825 mL/min/kg | 113 |  |  | 
56 | CNC(=O)CN1CCCN(C(=O)c2c(C)nn(-c3ccccc3)c2Cl)CC1 | ≤ 4.74 mL/min/kg | 87.7 mL/min/kg | 82.1 | 49.9 µg/mL (≈ 128 µM) |  | 
57 | C=CCn1cc(CNCc2csc3ccc(Cl)cc23)c(C)n1 | 347 mL/min/kg | 3200 mL/min/kg |  | 21.4 µg/mL (≈ 64.5 µM) |  | 
58 | Cc1cc(C)cc(NC(=O)COC(=O)c2nn(C)c(=O)c3ccccc23)c1 |  |  |  | 0.97 µg/mL (≈ 2.65 µM) |  | 
59 | COc1cccc(CN2CCc3nc(-c4cnccn4)nc(O)c3C2)c1 | ≤ 4.74 mL/min/kg | 26.6 mL/min/kg |  |  |  | 
